Assay results from article PMC5029699, “Landscape of activating cancer mutations in FGFR kinases and their differential responses to inhibitors in clinical use” (Oncotarget, 2016).

Experiments:
[1] = test system: cell line with introduced FGFR3 V555M mutation; parameters: method as in PMID 26097890; conditions: cell line originally responding to both drugs; cited from earlier work
[2] = test system: JHUEM-2 cancer cell line, FGFR2 mutation corresponding to N540K; parameters: method as in PMID 23908597; conditions: cited from earlier work
[3] = test system: cancer cell lines with the FGFR3 S249C substitution; conditions: some cancer cell lines with FGFR3 S249C; cited from earlier work
[4] = test system: NIH3T3 cells expressing FGFR3 N540K; conditions: N540K NIH3T3 cells vs FGFR3TACC3-fusion cells, in words
Protocol: (§1) For the cell viability assay in the presence of FGFR inhibitors, NIH3T3 cells transfected with the stated FGFR3 variants were plated in 96-well plates, 1000 cells per well. Twenty-four hours later the cells were treated with various concentrations of kinase inhibitor. Forty-eight hours later, fresh inhibitor was added and the cells incubated for 72 hours. Cell viability was measured through the addition of CellTiter-Glo (Promega) and luminenscence measured with a standard luminometer plate reader. Data were normalised and fitted to a log(inhibitor) vs. response curve (three parameters) with GraphPad Prism.

[5] = test system: NIH3T3 cells expressing FGFR3 K650E; conditions: K650E NIH3T3 cells vs FGFR3TACC3-fusion cells, in words
Protocol: as §1

[6] = test system: NIH3T3 cells expressing FGFR3TACC3-fusion (WT KD); conditions: AZD4547 compared with JNJ42756493
Protocol: as §1

For `CCN(CC)CCCCNc1ncc2cc(-c3cc(OC)cc(OC)c3)c(NC(=O)NC(C)(C)C)nc2n1` [PD173074], the “drug effect following introduction of FGFR3 V555M mutation” value [1] is listed as “loss of efficacy” and the “drug response due to mutation corresponding to N540K in FGFR2” value [2] is listed as “reduced sensitivity”.

In the case of AZD4547, the “viability and proliferation of cancer cell lines” value [3] is listed as “compromised”, the “effect of variant on inhibitor efficacy in cells” value [4] is listed as “reduce efficacy” and the “effect of variant on inhibitor efficacy in cells” value [5] is listed as “reduce efficacy”. For the same compound, the “difference between AZD4547 and JNJ42756493 cellular IC50s” value [6] was 2-3 fold.
